Source: paper PMC5581131, “The novel sphingosine-1-phosphate receptors antagonist AD2900 affects lymphocyte activation and inhibits T-cell entry into the lymph nodes” (Oncotarget, 2017)

Assays:
CCR7-expressing PBMCs = assay: CCR7 surface expression on PBMCs, FACS; format: cell-based, human; conditions: 100 nM, 30-min treatment
Experimental: Figure 3 AD2900 downregulates the percentage of S1P1- and CCR7-expressing cells in PBMCs (A, B) The percentages of S1P1-positive PBMCs after the treatment with different concentrations of AD2900, FTY720, or SEW2871 and at different time points were examined by FACS analysis. S1P1 expression was tested in PBMCs after a 30-min treatment with AD2900 at different concentrations (A) or after a 30-min or 60-min treatment with 100 nM AD2900, FTY720, or SEW2871 (B). (C) The percentage of CCR7-positive PBMCs was tested by FACS analysis after a 30-min treatment with 100 nM AD2900, FTY720, or SEW2871. All the significances are compared to untreated PBMCs. Results summarize the results of at least four independent experiments. Results of Student’s t-test: *(P < 0.05, two-tailed test), ** (P < 0.01, two-tailed test), *** (P < 0.001, two-tailed test), **** (P < 0.0001, two-tailed test).
CCR7 is known as a lymph node homing receptor, and it is also involved in lymphocyte recirculation. Together with S1P1, CCR7 controls the circulation of lymphocytes between the SLOs and the blood or lymph. We therefore examined the effect of AD2900 on the level of CCR7-surface-expressing PBMCs.
Human PBMCs: For the apoptosis test, anti-AnnexinV-FITC (BD Biosciences, CA, USA) was used. […]

C57BL/6 mice = assay: T-cell subpopulations (naive, Tcm-like, Tef/em-like) in blood, spleen and lymph nodes, FACS; format: in vivo, mouse
Experimental: We have shown that AD2900 has a unique effect on T-cell distribution in mice. Since T-cell subpopulations such as naïve T cells, central memory T cells (Tcm), and effector/effector memory T cells (Tef/em) have designated roles in the immune response, the influence of AD2900 on the localization of these subpopulations was investigated. The analysis of T-cell subpopulations was performed by FACS using antibodies against commonly accepted surface markers. Some of the molecules that we used as markers are involved in T-cell migration, and their expression can be affected by our treatment. […] Therefore, we refer to the CCR7-CD44+ T-cell population as Tef/em-like cells and to the CCR7+ CD44+ (Figure 6) or CD44+ CD62L+ (Supplementary Figure 4B) T-cell population as Tcm-like cells. The calculated cell number of the different subpopulations in control mice is shown in the left panel of Figure 6.
Figure 6 AD2900 treatment influences the distribution of mice T-cell populations in the blood, spleen, and peripheral lymph nodes C57BL/6 mice were orally administered with AD2900 or FTY720, as shown in Figure 4. Leukocytes from blood, spleen, and pLNs were collected and stained with TCR-β, CD44, and CCR7 fluorescent antibodies and then analyzed by FACS analysis. The percentages of CCR7+ CD44+ Tcm-like cells (left panel), CCR7-CD44+ Tef/em-like cells (central panel), and CCR7 + CD44-naive T cells (right panel) of the total T-cell population (TCR-β+) in blood (A), spleen (B), and pLNs (C) are shown. All the significances are compared to untreated healthy mice. Results summarize three independent experiments. Results of Student’s t-test:*(P < 0.05, two-tailed test), ** (P < 0.01, two-tailed test), *** (P < 0.001, two-tailed test), **** (P < 0.0001, two-tailed test).
Murine lymphocytes: The phenotype of murine lymphocytes was analyzed by flow cytometry using anti-CD3e-FITC, anti-CD19-PB, anti-CCR7-APC, anti-CD44-FITC, anti-CD62L-APC, and anti-TCR-β-PB (Biolegend, CA, USA).
C57BL/6 female mice aged 7–8 weeks were obtained from Harlan Laboratories (Jerusalem, Israel). The animal study was conducted under appropriate conditions and was approved by the Institutional Animal Care and Use Committee of the Hebrew University of Jerusalem in accordance with the national laws and regulations for the protection of animals. AD2900 was dissolved in 10% BSA (MP Biomedicals, CA, USA) in DDW at 1 mg/ml and then further diluted in 200 ml water to get final concentrations at 1.8, 2.7, or 3.6 mg/l. AD2900 and FTY720 were supplied ad libitum to the mice for 2 days or 7 days. At the end of the experiment, blood was collected, and the mice were sacrificed and tissues (lymph nodes and spleen) were harvested.

[1] = oral, as in Figure 4, % of total T cells

CCCCCCCCCCCCCCCCNC(CO)(CO)CO [AD2900]
reduction of the normal percentage of CCR7-expressing cell population (CCR7-expressing PBMCs): 22% ± 5%
Tcm-like cells in the blood and lymph nodes (C57BL/6 mice; compared to control): significantly downregulated
percentage of Tcm-like cells in the spleen (C57BL/6 mice; compared to control): significantly upregulated
percentage of naïve T-cell population among all T cells in the lymph nodes (C57BL/6 mice; compared with the untreated condition): remained the same
upregulation of the percentage of Tef/em-like cells in the blood (C57BL/6 mice; oral, as in Figure 4): 48% ± 1%
naïve T cells (CCR7+CD44-) reduced, mean of up to, of that in the control, in the blood (C57BL/6 mice; [1]): 32% ± 6%
naïve T cells (CCR7+CD44-) reduced, of that in the control, in the spleen (C57BL/6 mice; [1]): 38% ± 12%
